One assay deals with human TLR9 (Homo sapiens (Human), UniProt Q9NR96). Kind of assay: TLR9 inhibition reporter assay (HEK-Blue cells, SEAP reporter, ODN2006 stimulation).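 Also: compounds tested over 0.05 nM to 50 µM, 22 h incubation, inhibition taken as SEAP signal drop from agonist plus DMSO wells toward a known inhibitor control.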 The settings on record: read-out: TLR9 IC50, HEK-Blue cells overexpressing human TLR9, ODN2006 5 nM. (In general: A reporter such as luciferase makes a cellular process visible.)
human TLR9, sequence (Q9NR96 26-1032): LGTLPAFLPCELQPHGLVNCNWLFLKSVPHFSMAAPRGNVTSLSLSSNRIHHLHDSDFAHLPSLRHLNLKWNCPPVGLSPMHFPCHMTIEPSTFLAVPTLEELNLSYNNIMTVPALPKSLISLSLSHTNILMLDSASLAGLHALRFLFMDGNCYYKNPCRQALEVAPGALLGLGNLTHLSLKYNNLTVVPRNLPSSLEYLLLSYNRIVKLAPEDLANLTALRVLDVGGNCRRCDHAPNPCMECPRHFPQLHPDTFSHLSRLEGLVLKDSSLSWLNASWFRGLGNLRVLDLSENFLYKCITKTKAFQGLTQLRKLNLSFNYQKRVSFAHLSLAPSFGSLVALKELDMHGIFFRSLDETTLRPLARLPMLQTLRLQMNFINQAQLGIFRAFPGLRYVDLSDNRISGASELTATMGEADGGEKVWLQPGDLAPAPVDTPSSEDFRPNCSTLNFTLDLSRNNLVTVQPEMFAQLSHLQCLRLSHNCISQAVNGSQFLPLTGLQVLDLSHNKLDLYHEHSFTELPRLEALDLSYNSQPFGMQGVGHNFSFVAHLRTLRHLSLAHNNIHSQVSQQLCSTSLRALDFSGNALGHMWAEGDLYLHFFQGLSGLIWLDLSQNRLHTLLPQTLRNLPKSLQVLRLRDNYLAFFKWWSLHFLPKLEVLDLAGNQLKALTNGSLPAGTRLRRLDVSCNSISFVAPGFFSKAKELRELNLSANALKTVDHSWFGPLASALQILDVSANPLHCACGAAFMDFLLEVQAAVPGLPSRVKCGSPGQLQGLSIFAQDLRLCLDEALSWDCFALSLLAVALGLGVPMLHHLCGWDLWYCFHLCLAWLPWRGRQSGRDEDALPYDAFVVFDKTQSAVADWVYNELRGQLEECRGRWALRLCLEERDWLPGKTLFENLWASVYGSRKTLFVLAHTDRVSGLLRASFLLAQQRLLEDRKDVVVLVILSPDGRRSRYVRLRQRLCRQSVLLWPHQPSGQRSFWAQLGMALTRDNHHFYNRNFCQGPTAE
The target of a further assay is human TLR7 (Homo sapiens (Human), UniProt Q9NYK1). Kind of assay: TLR7 inhibition reporter assay (HEK-Blue cells, SEAP reporter, gardiquimod stimulation). It counts as cell-based. Conditions: HEK-Blue cells overexpressing human TLR7, gardiquimod 7.5 μM.
human TLR7, sequence (Q9NYK1 27-1049): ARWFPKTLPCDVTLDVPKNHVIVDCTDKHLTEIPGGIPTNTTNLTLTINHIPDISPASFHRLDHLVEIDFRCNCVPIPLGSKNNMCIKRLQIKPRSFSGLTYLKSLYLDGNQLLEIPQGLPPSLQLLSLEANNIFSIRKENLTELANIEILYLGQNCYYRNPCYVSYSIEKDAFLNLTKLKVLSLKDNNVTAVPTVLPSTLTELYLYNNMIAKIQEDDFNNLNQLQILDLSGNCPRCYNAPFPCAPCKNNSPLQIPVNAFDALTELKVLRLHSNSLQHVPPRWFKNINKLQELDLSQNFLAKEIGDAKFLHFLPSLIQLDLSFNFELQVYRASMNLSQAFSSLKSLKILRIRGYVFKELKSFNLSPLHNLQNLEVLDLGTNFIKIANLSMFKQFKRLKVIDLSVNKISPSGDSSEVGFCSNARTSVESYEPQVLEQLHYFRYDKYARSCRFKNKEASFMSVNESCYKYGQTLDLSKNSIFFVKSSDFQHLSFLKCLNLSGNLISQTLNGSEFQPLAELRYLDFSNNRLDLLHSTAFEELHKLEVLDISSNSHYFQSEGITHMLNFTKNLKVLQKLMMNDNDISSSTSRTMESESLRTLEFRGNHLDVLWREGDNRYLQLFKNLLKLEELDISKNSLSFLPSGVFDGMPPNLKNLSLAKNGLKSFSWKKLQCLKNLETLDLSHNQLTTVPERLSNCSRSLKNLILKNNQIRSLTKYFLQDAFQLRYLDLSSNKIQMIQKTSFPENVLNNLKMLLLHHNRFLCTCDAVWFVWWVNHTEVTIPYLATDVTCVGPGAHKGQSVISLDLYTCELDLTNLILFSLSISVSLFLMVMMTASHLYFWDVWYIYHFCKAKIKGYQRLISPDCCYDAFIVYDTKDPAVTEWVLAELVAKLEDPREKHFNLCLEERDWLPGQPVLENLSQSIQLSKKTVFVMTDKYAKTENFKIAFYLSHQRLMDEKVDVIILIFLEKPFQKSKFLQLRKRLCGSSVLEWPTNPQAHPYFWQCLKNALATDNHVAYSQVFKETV
The target of the next assay is human TLR8 (Homo sapiens (Human), UniProt Q9NR97). Nature of the assay: TLR8 inhibition reporter assay (HEK-Blue cells, SEAP reporter, R848 stimulation).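 Also: compounds tested from 0.05 nM to 50 µM, 22 h at 37 °C, SEAP measured with HEK-Blue Detection, inhibition relative to agonist plus DMSO versus a known inhibitor.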 The settings on record: read-out: TLR8 IC50, HEK-Blue cells overexpressing human TLR8, R848 15.9 μM.
human TLR8, sequence (Q9NR97 27-1041): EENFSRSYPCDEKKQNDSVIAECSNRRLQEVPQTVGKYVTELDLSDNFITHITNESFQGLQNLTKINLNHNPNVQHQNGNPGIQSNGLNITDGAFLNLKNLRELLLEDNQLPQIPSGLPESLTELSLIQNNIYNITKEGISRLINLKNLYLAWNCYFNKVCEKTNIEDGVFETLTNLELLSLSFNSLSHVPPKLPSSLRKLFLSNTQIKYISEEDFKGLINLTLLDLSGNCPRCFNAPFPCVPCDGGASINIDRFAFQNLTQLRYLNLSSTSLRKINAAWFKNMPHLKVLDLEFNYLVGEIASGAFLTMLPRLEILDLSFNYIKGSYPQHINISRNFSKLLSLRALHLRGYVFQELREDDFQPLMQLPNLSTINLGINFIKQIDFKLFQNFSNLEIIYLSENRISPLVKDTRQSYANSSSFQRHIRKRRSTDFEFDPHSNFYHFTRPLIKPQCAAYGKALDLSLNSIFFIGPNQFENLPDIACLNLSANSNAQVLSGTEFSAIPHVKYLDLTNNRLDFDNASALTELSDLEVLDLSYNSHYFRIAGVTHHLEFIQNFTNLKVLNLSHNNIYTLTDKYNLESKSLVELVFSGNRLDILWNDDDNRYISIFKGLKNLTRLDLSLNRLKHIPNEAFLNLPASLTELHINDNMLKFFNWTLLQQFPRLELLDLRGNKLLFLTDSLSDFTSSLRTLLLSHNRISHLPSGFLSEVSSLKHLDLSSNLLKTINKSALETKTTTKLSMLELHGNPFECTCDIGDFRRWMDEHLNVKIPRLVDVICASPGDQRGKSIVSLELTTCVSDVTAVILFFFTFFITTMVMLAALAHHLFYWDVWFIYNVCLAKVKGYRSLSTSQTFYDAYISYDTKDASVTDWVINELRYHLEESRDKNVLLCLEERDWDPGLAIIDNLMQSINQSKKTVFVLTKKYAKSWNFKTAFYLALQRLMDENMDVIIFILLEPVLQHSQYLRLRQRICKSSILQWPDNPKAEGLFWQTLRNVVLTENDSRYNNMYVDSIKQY

Structures are written as SMILES.

In general, IC50 refers to the concentration at which inhibition is half-maximal. With `Cc1cc(-c2[nH]c3ccc(C4CCN(CC(=O)N(C)CCCO)CC4)cc3c2C(C)C)cc(C)n1` [Example 288, 2-(4-(2-(2,6-dimethylpyridin-4-yl)-3-isopropyl-1H-indol-5-yl)piperidin-1-yl)-N-(3-hydroxypropyl)-N-methylacetamide], the IC50 at human TLR9 stood at 1470 nM; on human TLR7, 10 nM; at human TLR8, 34.6 nM.
Take `Cc1cc(-c2[nH]c3ccc(C4CCN(CC(=O)N(C)C5CCOC5)CC4)cc3c2C(C)C)cc(C)n1` (stereo not drawn) [Example 289, 2-(4-(2-(2,6-dimethylpyridin-4-yl)-3-isopropyl-1H-indol-5-yl)piperidin-1-yl)-N-methyl-N-(tetrahydrofuran-3-yl)acetamide]: the concentration for half-maximal inhibition (IC50) worked out at 697 nM on human TLR9, 6 nM against human TLR7 and 16.9 nM at human TLR8.
Take `Cc1cc(-c2[nH]c3ccc(C4CCN(CC(=O)N5C[C@H](C)C[C@@H]5CO)CC4)cc3c2C(C)C)cc(C)n1` [Example 290, 2-(4-(2-(2,6-dimethylpyridin-4-yl)-3-isopropyl-1H-indol-5-yl)piperidin-1-yl)-1-((2R,4R)-2-(hydroxymethyl)-4-methylpyrrolidin-1-yl) ethan-1-one]: the IC50 at human TLR9 came out at 870 nM; against human TLR7 it was 12 nM; on human TLR8, 66.8 nM.
With `Cc1cc(-c2[nH]c3ccc(C4CCN(CC(=O)N5C[C@@H](C(F)(F)F)C[C@H]5CO)CC4)cc3c2C(C)C)cc(C)n1` [Example 291, 2-(4-(2-(2,6-dimethylpyridin-4-yl)-3-isopropyl-1H-indol-5-yl)piperidin-1-yl)-1-((2S,4S)-2-(hydroxymethyl)-4-(trifluoromethyl)pyrrolidin-1-yl)ethan-1-one], the IC50 stood at 3200 nM at human TLR9, 18.1 nM at human TLR7 and 124 nM at human TLR8.
For `CO[C@@H]1C[C@H](CO)N(C(=O)CN2CCC(c3ccc4[nH]c(-c5cc(C)nc(C)c5)c(C(C)C)c4c3)CC2)C1` [Example 292, 2-(4-(2-(2,6-dimethylpyridin-4-yl)-3-isopropyl-1H-indol-5-yl)piperidin-1-yl)-1-((2R,4R)-2-(hydroxymethyl)-4-methoxypyrrolidin-1-yl)ethan-1-one] the same measures were 365 nM, 3.1 nM and 12.3 nM.
`Cc1cc(-c2[nH]c3ccc(C4CCN(CC(=O)N(CCO)Cc5ccccc5)CC4)cc3c2C(C)C)cc(C)n1` [Example 293, N-benzyl-2-(4-(2-(2,6-dimethylpyridin-4-yl)-3-isopropyl-1H-indol-5-yl)piperidin-1-yl)-N-(2-hydroxyethyl)acetamide]: the IC50 came to 711 nM on human TLR9, 22.8 nM at human TLR7 and 72.2 nM at human TLR8.
The matching figures for `CCN(CCO)C(=O)CN1CCC(c2ccc3[nH]c(-c4cc(C)nc(C)c4)c(C(C)C)c3c2)CC1` [Example 294, 2-(4-(2-(2,6-dimethylpyridin-4-yl)-3-isopropyl-1H-indol-5-yl)piperidin-1-yl)-N-ethyl-N-(2-hydroxyethyl)acetamide]: 1880 nM, 14.1 nM and 58.3 nM.
As to `CCCN(CCO)C(=O)CN1CCC(c2ccc3[nH]c(-c4cc(C)nc(C)c4)c(C(C)C)c3c2)CC1` [Example 295, 2-(4-(2-(2,6-dimethylpyridin-4-yl)-3-isopropyl-1H-indol-5-yl)piperidin-1-yl)-N-(2-hydroxyethyl)-N-propylacetamide], the IC50 came to 3170 nM at human TLR9, 30 nM against human TLR7 and 142 nM at human TLR8.
With `Cc1cc(-c2[nH]c3ccc(C4CCN(CC(=O)N(C)CC(O)c5ccccc5)CC4)cc3c2C(C)C)cc(C)n1` (stereo not drawn) [Example 296, 2-(4-(2-(2,6-dimethylpyridin-4-yl)-3-isopropyl-1H-indol-5-yl)piperidin-1-yl)-N-(2-hydroxy-2-phenylethyl)-N-methylacetamide], the IC50 on human TLR9 is 553 nM; on human TLR7, 10.5 nM; on human TLR8, 46.2 nM.
